Experimental data taken from EP4635500A1, “THERAPEUTIC AGENT FOR BACTERIAL INFECTION” (Sumitomo Pharma Co., Ltd., priority 2022, dated 2024).
Converted amounts (≈) assume the structure as drawn. Where two headings read alike, the source gives them in different places.

Key:
Format in all cases: cell-based
Enterobacterales = experiment: MIC, broth microdilution, CDC/FDA Antibiotic Resistance Isolate Bank (Example 7, Tables 8, 11, 12); details: for MIC50: carbapenemase-producing Enterobacterales, read-out: MIC50
Escherichia coli = experiment: MIC, broth microdilution, standard strains and Japanese clinical isolates (Example 5, Table 4)
[1] = test system: Metallo-β-lactamase producing strains (N = 27); experiment: MIC50/MIC90 for carbapenemase-producing isolates (Example 5, Table 6); details: metallo-β-lactamase-producing strains; combination: Compound A at a fixed concentration of 4 µg/mL; read-out: MIC90
Klebsiella pneumoniae = experiment: MIC, broth microdilution, standard strains and Japanese clinical isolates (Example 5, Table 4)
Enterobacter cloacae = experiment: as above
CRE and CPE strains = experiment: MIC, broth microdilution, standard strains and Japanese clinical isolates (Example 5, Table 4 continued; organism of each KUB strain not given)

CC(C)(O/N=C(\C(=O)N[C@@H]1C(=O)N2C(C(=O)[O-])=C(C[N+]3(CCNC(=O)c4ccc(O)c(O)c4Cl)CCCC3)CS[C@H]12)c1csc(N)n1)C(=O)O [Cefiderocol, cefiderocol]
MIC (Enterobacterales; Klebsiella pneumoniae, KUB No. 5594, AR Bank # 97, read-out: MIC): 1 µg/mL (≈ 1.33 µM)
MIC (Enterobacterales; Klebsiella pneumoniae, KUB No. 5595, AR Bank # 98, read-out: MIC): 0.12 µg/mL (≈ 0.16 µM)
MIC (Enterobacterales; Klebsiella pneumoniae, KUB No. 5603, AR Bank # 106, read-out: MIC): 1 µg/mL (≈ 1.33 µM)
MIC (Enterobacterales; Klebsiella pneumoniae, KUB No. 5604, AR Bank # 107, read-out: MIC): ≤ 0.06 µg/mL
MIC (Enterobacterales; Klebsiella pneumoniae, KUB No. 5606, AR Bank # 109, read-out: MIC): 0.5 µg/mL (≈ 0.665 µM)
MIC (Enterobacterales; Klebsiella pneumoniae, KUB No. 5609, AR Bank # 112, read-out: MIC): 2 µg/mL (≈ 2.66 µM)
MIC (Enterobacterales; Klebsiella pneumoniae, KUB No. 5610, AR Bank # 113, read-out: MIC): 0.5 µg/mL (≈ 0.665 µM)
MIC (Enterobacterales; Klebsiella pneumoniae, KUB No. 5612, AR Bank # 115, read-out: MIC): 0.5 µg/mL (≈ 0.665 µM)
MIC (Enterobacterales; Klebsiella pneumoniae, KUB No. 5614, AR Bank # 117, read-out: MIC): 2 µg/mL (≈ 2.66 µM)
MIC (Enterobacterales; Klebsiella pneumoniae, KUB No. 5617, AR Bank # 120, read-out: MIC): 0.25 µg/mL (≈ 0.332 µM)
MIC (Enterobacterales; Klebsiella pneumoniae, KUB No. 5622, AR Bank # 125, read-out: MIC): 1 µg/mL (≈ 1.33 µM)
MIC (Enterobacterales; Klebsiella pneumoniae, KUB No. 5623, AR Bank # 126, read-out: MIC): ≤ 0.06 µg/mL
MIC (Enterobacterales; Klebsiella pneumoniae, KUB No. 5626, AR Bank # 129, read-out: MIC): 1 µg/mL (≈ 1.33 µM)
MIC (Enterobacterales; Klebsiella pneumoniae, KUB No. 5632, AR Bank # 135, read-out: MIC): 1 µg/mL (≈ 1.33 µM)
MIC (Enterobacterales; Klebsiella pneumoniae, KUB No. 5635, AR Bank # 138, read-out: MIC): 1 µg/mL (≈ 1.33 µM)
MIC (Enterobacterales; Klebsiella pneumoniae, KUB No. 5636, AR Bank # 139, read-out: MIC): 0.12 µg/mL (≈ 0.16 µM)
MIC (Enterobacterales; Klebsiella pneumoniae, KUB No. 5637, AR Bank # 140, read-out: MIC): 0.12 µg/mL (≈ 0.16 µM)
MIC (Enterobacterales; Klebsiella pneumoniae, KUB No. 5638, AR Bank # 141, read-out: MIC): ≤ 0.06 µg/mL
MIC (Enterobacterales; Klebsiella pneumoniae, KUB No. 5639, AR Bank # 142, read-out: MIC): < 0.06 µg/mL
MIC (Enterobacterales; Klebsiella pneumoniae, KUB No. 5640, AR Bank # 143, read-out: MIC): 1 µg/mL (≈ 1.33 µM)
MIC (Enterobacterales; Klebsiella pneumoniae, KUB No. 5642, AR Bank # 145, read-out: MIC): 0.25 µg/mL (≈ 0.332 µM)
MIC (Enterobacterales; Klebsiella pneumoniae, KUB No. 5643, AR Bank # 146, read-out: MIC): 0.25 µg/mL (≈ 0.332 µM)
MIC (Enterobacterales; Klebsiella pneumoniae, KUB No. 5645, AR Bank # 148, read-out: MIC): 0.5 µg/mL (≈ 0.665 µM)
MIC (Enterobacterales; Klebsiella pneumoniae, KUB No. 5649, AR Bank # 152, read-out: MIC): 0.25 µg/mL (≈ 0.332 µM)
MIC (Enterobacterales; Klebsiella pneumoniae, KUB No. 5650, AR Bank # 153, read-out: MIC): 1 µg/mL (≈ 1.33 µM)
MIC (Enterobacterales; Klebsiella pneumoniae, KUB No. 5655, AR Bank # 158, read-out: MIC): 0.5 µg/mL (≈ 0.665 µM)
MIC (Enterobacterales; Klebsiella pneumoniae, KUB No. 5657, AR Bank # 160, read-out: MIC): 0.25 µg/mL (≈ 0.332 µM)
MIC (Enterobacterales; Klebsiella pneumoniae, KUB No. 5757, AR Bank # 361, read-out: MIC): 1 µg/mL (≈ 1.33 µM)
MIC (Enterobacterales; Klebsiella pneumoniae, KUB No. 5759, AR Bank # 363, read-out: MIC): 0.25 µg/mL (≈ 0.332 µM)
MIC (Enterobacterales; Klebsiella pneumoniae, KUB No. 5760, AR Bank # 364, read-out: MIC): 2 µg/mL (≈ 2.66 µM)
MIC (Enterobacterales; Klebsiella pneumoniae, KUB No. 5772, AR Bank # 376, read-out: MIC): 1 µg/mL (≈ 1.33 µM)
MIC (Enterobacterales; Klebsiella pneumoniae, Klebsiella pneumoniae KUB No. 5784, AR Bank #438, read-out: MIC): 0.5 µg/mL (≈ 0.665 µM)
MIC (Enterobacterales; Klebsiella pneumoniae, Klebsiella pneumoniae KUB No. 5797, AR Bank #453, read-out: MIC): 0.25 µg/mL (≈ 0.332 µM)
MIC (Enterobacterales; Klebsiella pneumoniae, Klebsiella pneumoniae KUB No. 5809, AR Bank #504, read-out: MIC): 0.25 µg/mL (≈ 0.332 µM)
MIC (Enterobacterales; Klebsiella pneumoniae, Klebsiella pneumoniae KUB No. 5810, AR Bank #505, read-out: MIC): 0.5 µg/mL (≈ 0.665 µM)
MIC (Enterobacterales; Klebsiella pneumoniae, Klebsiella pneumoniae KUB No. 5811, AR Bank #506, read-out: MIC): 2 µg/mL (≈ 2.66 µM)
MIC (Enterobacterales; Klebsiella pneumoniae, Klebsiella pneumoniae KUB No. 5812, AR Bank #507, read-out: MIC): 2 µg/mL (≈ 2.66 µM)
MIC (Enterobacterales; Klebsiella pneumoniae, Klebsiella pneumoniae KUB No. 5827, AR Bank #522, read-out: MIC): 2 µg/mL (≈ 2.66 µM)
MIC (Enterobacterales; Klebsiella pneumoniae, Klebsiella pneumoniae KUB No. 5828, AR Bank #523, read-out: MIC): 1 µg/mL (≈ 1.33 µM)
MIC (Enterobacterales; Klebsiella pneumoniae, Klebsiella pneumoniae KUB No. 5829, AR Bank #524, read-out: MIC): 0.5 µg/mL (≈ 0.665 µM)
MIC (Enterobacterales; Klebsiella pneumoniae, Klebsiella pneumoniae KUB No. 5830, AR Bank #525, read-out: MIC): 2 µg/mL (≈ 2.66 µM)
MIC (Enterobacterales; Kluyvera ascorbata, KUB No. 5641, AR Bank # 144, read-out: MIC): ≤ 0.06 µg/mL
MIC (Enterobacterales; Morganella morganii, KUB No. 5630, AR Bank # 133, read-out: MIC): ≤ 0.06 µg/mL
MIC (Enterobacterales; Proteus mirabilis, KUB No. 5556, AR Bank# 59, read-out: MIC): 0.25 µg/mL (≈ 0.332 µM)
MIC (Enterobacterales; Proteus mirabilis, KUB No. 5652, AR Bank # 155, read-out: MIC): ≤ 0.06 µg/mL
MIC (Enterobacterales; Proteus mirabilis, KUB No. 5653, AR Bank # 156, read-out: MIC): < 0.06 µg/mL
MIC (Enterobacterales; Proteus mirabilis, KUB No. 5656, AR Bank # 159, read-out: MIC): 0.5 µg/mL (≈ 0.665 µM)
MIC (Enterobacterales; Proteus mirabilis, KUB No. 5773, AR Bank # 377, read-out: MIC): ≤ 0.06 µg/mL
MIC (Enterobacterales; Proteus mirabilis, KUB No. 5775, AR Bank # 379, read-out: MIC): 2 µg/mL (≈ 2.66 µM)
MIC (Enterobacterales; Providencia rettgeri, KUB No. 5579, AR Bank # 82, read-out: MIC): ≤ 0.06 µg/mL
MIC (Enterobacterales; Salmonella enterica, Salmonella Senftenberg, KUB No. 5624, AR Bank # 127, read-out: MIC): 1 µg/mL (≈ 1.33 µM)
MIC (Enterobacterales; Serratia marcescens, KUB No. 5588, AR Bank # 91, read-out: MIC): ≤ 0.06 µg/mL
MIC (Enterobacterales; Serratia marcescens, KUB No. 5596, AR Bank # 99, read-out: MIC): 0.25 µg/mL (≈ 0.332 µM)
MIC (Enterobacterales; Serratia marcescens, KUB No. 5618, AR Bank # 121, read-out: MIC): 0.12 µg/mL (≈ 0.16 µM)
MIC (Enterobacterales; Serratia marcescens, KUB No. 5619, AR Bank # 122, read-out: MIC): 0.12 µg/mL (≈ 0.16 µM)
MIC (Enterobacterales; Serratia marcescens, KUB No. 5620, AR Bank # 123, read-out: MIC): < 0.06 µg/mL
MIC (Enterobacterales; Serratia marcescens, KUB No. 5621, AR Bank # 124): ≤0.0 µg/mL
MIC (Enterobacterales; Serratia marcescens, KUB No. 5627, AR Bank # 130, read-out: MIC): 0.12 µg/mL (≈ 0.16 µM)
MIC (Enterobacterales; Serratia marcescens, KUB No. 5628, AR Bank # 131, read-out: MIC): 50.1 µg/mL (≈ 66.5 µM)
MIC (Enterobacterales; Serratia marcescens, Serratia marcescens KUB No. 5822, AR Bank #517, read-out: MIC): 2 µg/mL (≈ 2.66 µM)
MIC (Enterobacterales; Serratia marcescens, Serratia marcescens KUB No. 5826, AR Bank #521, read-out: MIC): 0.5 µg/mL (≈ 0.665 µM)
MIC50 (Enterobacterales; Metallo-β-lactamase (N = 47)): 1 µg/mL (≈ 1.33 µM)
MIC50 (Enterobacterales; Serine carbapenemase (N=61)): 0.25 µg/mL (≈ 0.332 µM)
MIC (Escherichia coli; ATCCBAA2452, KUB4005 Escherichia coli ATCC BAA-2452, NDM-1): 0.5 µg/mL (≈ 0.665 µM)
MIC (Escherichia coli; ATCCBAA2471, KUB4007 Escherichia coli ATCC BAA-2471, NDM-6): 4 µg/mL (≈ 5.32 µM)
MIC90 [1]: 8 µg/mL
MIC (Klebsiella pneumoniae; ATCCBAA1898, KUB3996 Klebsiella pneumoniae ATCC BAA-1898, KPC-2): 2 µg/mL (≈ 2.66 µM)
MIC (Klebsiella pneumoniae; ATCCBAA1899, KUB3997 Klebsiella pneumoniae ATCC BAA-1899, KPC-2): 2 µg/mL (≈ 2.66 µM)
MIC (Klebsiella pneumoniae; ATCCBAA1900, KUB3998 Klebsiella pneumoniae ATCC BAA-1900, KPC-3): 0.25 µg/mL (≈ 0.332 µM)
MIC (Klebsiella pneumoniae; ATCCBAA1904, KUB3999 Klebsiella pneumoniae ATCC BAA-1904, KPC-3): 1 µg/mL (≈ 1.33 µM)
MIC (Klebsiella pneumoniae; ATCCBAA2078, KUB4000 Klebsiella pneumoniae ATCC BAA-2078, KPC-3): 2 µg/mL (≈ 2.66 µM)
MIC (Klebsiella pneumoniae; ATCCBAA2146, KUB4011 Klebsiella pneumoniae ATCC BAA-2146, NDM-1): 2 µg/mL (≈ 2.66 µM)
MIC (Klebsiella pneumoniae; ATCCBAA2342, KUB4003 Klebsiella pneumoniae ATCC BAA-2342, KPC-3): 0.5 µg/mL (≈ 0.665 µM)
MIC (Klebsiella pneumoniae; ATCCBAA2343, KUB4004 Klebsiella pneumoniae ATCC BAA-2343, KPC-3): 0.25 µg/mL (≈ 0.332 µM)
MIC (Klebsiella pneumoniae; ATCCBAA2472, KUB4008 Klebsiella pneumoniae subsp. Pneumoniae ATCC BAA-2472, NDM-1): 8 µg/mL (≈ 10.6 µM)
MIC (Klebsiella pneumoniae; ATCCBAA2473, KUB4009 Klebsiella pneumoniae ATCC BAA-2473, NDM-1): 8 µg/mL (≈ 10.6 µM)
MIC (Klebsiella pneumoniae; KUB3631 Klebsiella pneumoniae Clinical isolate, IMP-1): 2 µg/mL (≈ 2.66 µM)
MIC (Klebsiella pneumoniae; KUB3633 Klebsiella pneumoniae Clinical isolate, IMP-6): 1 µg/mL (≈ 1.33 µM)
MIC (Klebsiella pneumoniae; KUB3634 Klebsiella pneumoniae Clinical isolate, IMP-6): 2 µg/mL (≈ 2.66 µM)
MIC (Enterobacter cloacae; ATCCBAA2341, KUB4002 Enterobacter cloacae ATCC BAA-2341, KPC-3): 0.5 µg/mL (≈ 0.665 µM)
MIC (Enterobacter cloacae; ATCCBAA2468, KUB4006 Enterobacter cloacae ATCC BAA-2468, NDM-1): 1 µg/mL (≈ 1.33 µM)
MIC (CRE and CPE strains; strain KUB3149, carbapenemase gene NDM-1, read-out: MIC): 2 µg/mL (≈ 2.66 µM)
MIC (CRE and CPE strains; strain KUB3150, carbapenemase gene OXA-48, read-out: MIC): ≤ 0.06 µg/mL
MIC (CRE and CPE strains; strain KUB3151, carbapenemase gene IMP-1, read-out: MIC): 1 µg/mL (≈ 1.33 µM)
MIC (CRE and CPE strains; strain KUB3152, carbapenemase gene KPC-2, read-out: MIC): 2 µg/mL (≈ 2.66 µM)
MIC (CRE and CPE strains; strain KUB3154, carbapenemase gene KPC-2, read-out: MIC): 4 µg/mL (≈ 5.32 µM)
MIC (CRE and CPE strains; strain KUB3157, carbapenemase gene NDM-1): 8 µg/mL (≈ 10.6 µM)
MIC (CRE and CPE strains; strain KUB3164, carbapenemase gene IMP-6): 0.12 µg/mL (≈ 0.16 µM)
